Results from paper PMC5617480 (Oncotarget, 2017).

Columns and labels:
[1] = tested on: Pu27 (DNA, G4) TGGGGAGGGTGGGGAGGGTGGGGAAGG; assay: fluorescent intercalator displacement (FID); details: thiazole orange displaced
[2] = tested on: MGC80-3 cells; assay: Cytotoxicity assay (MTT assay); assay type: cell-based, human; details: for Inhibitory rates (%): MGC80-3, 20 μM
Protocol: (§1) To evaluate the cytotoxicity of chiral platinum(II) complexes, HeLa, BEL-7402, MGC80-3, BEL-7404, A549, Hep-G2 and HL-7702 cells (normal cells) were treated with varying concentrations of complexes 1–6 and cisplatin (positive control, cisplatin was dissolved at a concentration of 1.0 mM in 0.154 M NaCl) for 24 h and 48 h. The cell viability of each experimental group was examined by MTT assays. […] [61, 62]. […] Therefore, complex 6 (10 μM) was selected for cell apoptosis analysis by flow-cytometry, RT-PCR, caspase-3/9 activation assays, western blot and transfection assays in BEL-7404 cells for 24 h. In addition, this observed difference in in vitro cytotoxicity between the three complexes 4–6 could be due to the influence of the chirality of the FOA ligand [68]. […]
(§2) Materials 100 U/mL penicillin and 100 μg/mL streptomycin in 25 cm2 culture flasks at 37 °C humidified atmosphere with Tris, RNase A, and propidium iodide (PI) were 5% CO2. All cells to be tested in the following assays have purchased from Sigma. The antibody of mutp53, a passage number of 3-6. […]
(§3) were purchased from Abcam. Unless otherwise stated, BEL-7404, A549, and Hep-G2 cancer-cell lines and HL-spectroscopic titration experiments were carried out in 7702 normal cells) per well were seeded in triplicate in TBS (10 mM pH7.35 Tris-HCl, containing 100 mM KCl). 96-well plates and incubated for 24 h at 37 °C and 5.0% The total RNA isolation kit and the two-step RT-PCR kit CO2/95.0% air. Then graded amounts of compound were purchased from TIANGEN. DNA oligomers (highly added to the wells in 10.0 μL of FBS free culture medium polymerized stored at 4 °C; long-term storage at −20 °C) and the plates were incubated in a 5% CO2 humidified are listed in Supplementary Table 1 and were obtained from atmosphere for 24 h and 48 h. Six replica wells were used Shanghai Sangon Biological Engineering Technology & as controls. Each the cells were grew for 12.0 h before Services (Shanghai, China). All tumor cell lines (HeLa, treatment to reach 70.0% confluency and 20.0 μL of tested BEL-7402, MGC80-3, BEL-7404, A549, Hep-G2 cancer- various concentrations of compounds were added to each cell lines and normal liver cell line HL-7702) were obtained well. The final concentration of the tested complexes from the Shanghai Institute for Biological Science (China). or compounds were kept at 1.25, 2.5, 5, 10, 20 μM, Stock solutions of all the compounds (2.0 mM) were made respectively. After 24 h or 48 h of culture, 0.1 mg of in DMSO, and further dilutions to working concentrations MTT (in 20 μL of PBS) was added to each well, and cells were made with corresponding buffer. were incubated at 37 °C for 6 h. The formed formazan crystals were then dissolved in 100 μL of DMSO and the Instrumentation absorbance was read by enzyme labeling instrument with Infrared spectra were obtained on a Perkine Elmer 490/630 nm double wavelength measurement. The final FT-IR Spectrometer. Elemental analyses (C, H, N) IC50 values were calculated by the Bliss method (n = 5). were carried out on a Perkin Elmer Series II CHNS/O All tests were repeated in at least three independent trials. […]
(§4) 10.0 min. The cell pellet obtained was dissolved in 1.0 M
(§5) The region between 200 and 400 nm was scanned for each NaOH (1.0 mL) and diluted with 2.0% (v/v) HNO3 (5.0 sample. MTT assay was performed on M1000 microplate mL) for determining whole cell Pt content. Another set reader (Tecan Trading Co. Ltd, Shanghai, China). Cell was treated similarly, nuclear proteins, nuclear fraction, cycle and apoptosis analysis was recorded on FACS Aria cytoplasmic protein, membrane proteins and other fraction II Flow Cytometer (BD Biocsiences, San Jose, USA). were isolated as described by Chen and Schreiber et al. And the each final solution was made up to 5.0 mL
(§6) Cytotoxicity assay (MTT assay) using 2.0% (v/v) HNO3. The amount of Pt taken up by the cells was determined by ICP-MS. The instrument was […]

[3] = tested on: Hep-G2 cells; assay: Cytotoxicity assay (MTT assay); assay type: cell-based, human; details: for Inhibitory rates (%): Hep-G2, 20 μM
Protocol: as §1, §2, §3, §4, §5, §6

[4] = tested on: BEL-7404 cells; assay: Cytotoxicity assay (MTT assay); assay type: cell-based, human; details: for Inhibitory rates (%): BEL-7404, 20 μM
Protocol: as §1, §2, §3, §4, §5, §6

[5] = tested on: HeLa cells; assay: Cytotoxicity assay (MTT assay); assay type: cell-based, human; details: for Inhibitory rates (%): 20 μM
Protocol: as §1, §2, §3, §4, §5, §6

[6] = tested on: A549 cells; assay: Cytotoxicity assay (MTT assay); assay type: cell-based, human; details: for Inhibitory rates (%): A549, 20 μM
Protocol: as §1, §2, §3, §4, §5, §6

[7] = tested on: BEL-7402 cells; assay: Cytotoxicity assay (MTT assay); assay type: cell-based, human; details: for Inhibitory rates (%): BEL-7402, 20 μM
Protocol: as §1, §2, §3, §4, §5, §6

[8] = tested on: HL-7702 normal cells; assay: Cytotoxicity assay (MTT assay); assay type: cell-based, human; details: for Inhibitory rates (%): HL-7702, 20 μM
Protocol: To evaluate the cytotoxicity of chiral platinum(II) complexes, HeLa, BEL-7402, MGC80-3, BEL-7404, A549, Hep-G2 and HL-7702 cells (normal cells) were treated with varying concentrations of complexes 1–6 and cisplatin (positive control, cisplatin was dissolved at a concentration of 1.0 mM in 0.154 M NaCl) for 24 h and 48 h. The cell viability of each experimental group was examined by MTT assays. […] [61, 62].
as §2, §3

Compound	Inhibitory rates (%) ([2]; 24 h)	Inhibitory rates (%) ([2]; 48 h)	IC50 ([2]; MGC80-3, 24 h)	Inhibitory rates (%) ([3]; 24 h)	Inhibitory rates (%) ([3]; 48 h)	IC50 ([3]; Hep-G2, 24 h)	Inhibitory rates (%) ([4]; 24 h)	Inhibitory rates (%) ([4]; 48 h)	IC50 ([4]; BEL-7404, 24 h)	Inhibitory rates (%) ([5]; 24 h)	Inhibitory rates (%) ([5]; 48 h)	IC50 ([5]; 24 h)	Inhibitory rates (%) ([6]; 24 h)	Inhibitory rates (%) ([6]; 48 h)	IC50 ([6]; A549, 24 h)	Inhibitory rates (%) ([7]; 24 h)	Inhibitory rates (%) ([7]; 48 h)	IC50 ([7]; BEL-7402, 24 h)	selectivity index factor, IC50 (normal HL-7702 cells)/IC50 (BEL-7404 tumor cells) ([8]; 24 h)	Inhibitory rates (%) ([8]; 24 h)	also measured
O=C(NCC(O)CO)c1cnc2c3c(cccc13)-c1ccccc1C2=O.[Cl-].[Cl-].[Pt+2] (racemic) [ligand 1, R/S-(±)-FOA]	18.6 ± 0.3%	24.9 ± 2.2%	87.2 ± 0.5 µM	21.3 ± 1.9%	27.8 ± 0.8%	73.5 ± 2 µM	35.9 ± 0.7%	51.9 ± 2.7%	41.2 ± 0.6 µM	25.6± 1.2%	33.6 ± 1.3%	69.3 ± 1.3 µM	32.6 ± 0.4%	48.4 ± 1.6%	45.8 ± 0.3 µM	30.5 ± 1.4%	38.9 ± 1.6%	54.9 ± 1.2 µM	3.4	11.0 ± 1.6%	G4DC50 [1]: 1.01 µM; Inhibitory rates (%) ([8]; 48 h): 15.2 ± 0.6%; IC50 ([8]; HL-7702, 24 h): 141 ± 1.7 µM
N.N.[Cl][Pt][Cl] [cisplatin, reference compound]	61.5 ± 1.2%	71.4 ± 1.5%	16.3 ± 1.3 µM	51.6 ± 0.6%	60.6 ± 1.0%	19.5 ± 0.5 µM	45.5 ± 2.1%	54.2 ± 1.4%	24.8 ± 1.8 µM	64.3 ± 1.4%	80.6 ± 0.9%	15.8 ± 1.2 µM	48.6 ± 0.4%	51.1 ± 3.4%	21.3 ± 0.7 µM	55.4 ± 0.9%	65.7 ± 1.2%	17.5 ± 0.6 µM	0.8	59.6 ± 1.2%	IC50 ([2]; MGC80-3, 48 h): 5.4 ± 0.5 µM; IC50 ([3]; Hep-G2, 48 h): 9.5 ± 0.4 µM; IC50 ([4]; BEL-7404, 48 h): 15.8 ± 0.7 µM; IC50 ([5]; 48 h): 5.8 ± 0.9 µM; IC50 ([6]; A549, 48 h): 17 ± 2.3 µM; IC50 ([7]; BEL-7402, 48 h): 13.5 ± 0.9 µM; selectivity index factor, IC50 (normal HL-7702 cells)/IC50 (BEL-7404 tumor cells) ([8]; 48 h): 1.0; Inhibitory rates (%) ([8]; 48 h): 73.6 ± 2.3%; IC50 ([8]; HL-7702, 24 h): 19.8 ± 1.3 µM; IC50 ([8]; HL-7702, 48 h): 15.6 ± 0.3 µM
cis-[PtCl2(R-(+)-FOA)] [complex 5]	11.3 ± 0.4%	19.8 ± 1.8%	135.1 ± 0.5 µM	16.5 ± 1.4%	23.3 ± 0.5%	93.4 ± 1.2 µM	46.1 ± 1.1%	55.9 ± 2.7%	22.5 ± 1.3 µM	8.6 ± 1.5%	9.9 ± 0.7%	168.6 ± 1.4 µM	28.9 ± 0.5%	35.9 ± 2.6%	56.3 ± 0.7 µM	35.6 ± 2.1%	42.1 ± 0.7%	42.3 ± 1.9 µM	3.6	30.6 ± 2.1%	IC50 ([2]; MGC80-3, 48 h): 37.4 ± 1.2 µM; IC50 ([3]; Hep-G2, 48 h): 35.7 ± 1.5 µM; IC50 ([4]; BEL-7404, 48 h): 14.5 ± 0.5 µM; IC50 ([5]; 48 h): 64.2 ± 0.2 µM; IC50 ([6]; A549, 48 h): 17.2 ± 0.1 µM; IC50 ([7]; BEL-7402, 48 h): 38.4 ± 1.4 µM; selectivity index factor, IC50 (normal HL-7702 cells)/IC50 (BEL-7404 tumor cells) ([8]; 48 h): 3.9; Inhibitory rates (%) ([8]; 48 h): 37.5 ± 5.3%; IC50 ([8]; HL-7702, 24 h): 80.1 ± 1.8 µM; IC50 ([8]; HL-7702, 48 h): 55.8 ± 3.1 µM
cis-[PtCl2(R/S-(±)-FOA)] [complex 4]	22.0 ± 1.9%	24.9 ± 1.4%	80.6 ± 2 µM	20.8 ± 0.3%	27.6 ± 1.1%	84.6 ± 0.4 µM	67.3 ± 1.3%	80.0 ± 4.3%	12.5 ± 1.1 µM	18.5 ± 0.7%	24.1 ± 2.1%	90.5 ± 0.7 µM	57.6 ± 0.6%	77.8 ± 0.1%	18.6 ± 0.5 µM	41.2 ± 0.6%	48.6 ± 1.3%	32.5 ± 0.5 µM	6.8	28.3 ± 1.7%	IC50 ([2]; MGC80-3, 48 h): 32.1 ± 1.8 µM; IC50 ([3]; Hep-G2, 48 h): 29.1 ± 0.8 µM; IC50 ([4]; BEL-7404, 48 h): 8.7 ± 0.1 µM; IC50 ([5]; 48 h): 38.1 ± 1.5 µM; IC50 ([6]; A549, 48 h): 9.1 ± 0.6 µM; IC50 ([7]; BEL-7402, 48 h): 20.7 ± 0.9 µM; selectivity index factor, IC50 (normal HL-7702 cells)/IC50 (BEL-7404 tumor cells) ([8]; 48 h): 6.7; Inhibitory rates (%) ([8]; 48 h): 31.6 ± 2.4%; IC50 ([8]; HL-7702, 24 h): 85.4 ± 1.5 µM; IC50 ([8]; HL-7702, 48 h): 58.5 ± 5.5 µM
cis-[PtCl2(S-(–)-FOA)] [complex 6]	25.1 ± 0.5%	26.5 ± 1.1%	72.8 ± 0.4 µM	30.2 ± 1.6%	39.3 ± 2.2%	50.1 ± 1.8 µM	70.9 ± 0.7%	81.3 ± 0.4%	10.1 ± 0.6 µM	21.1 ± 0.9%	25.1 ± 1.4%	78.2 ± 0.9 µM	65.3 ± 1.3%	84.7 ± 2.2%	15.3 ± 1.2 µM	50.5 ± 1.6%	58.4 ± 2.1%	20.6 ± 1.5 µM	11.8	20.7 ± 1.6%	IC50 ([2]; MGC80-3, 48 h): 31.5 ± 1.7 µM; IC50 ([3]; Hep-G2, 48 h): 17.7 ± 1.2 µM; IC50 ([4]; BEL-7404, 48 h): 7.9 ± 0.3 µM; IC50 ([5]; 48 h): 31.8 ± 0.7 µM; IC50 ([6]; A549, 48 h): 8.2 ± 0.5 µM; IC50 ([7]; BEL-7402, 48 h): 15.3 ± 2.2 µM; selectivity index factor, IC50 (normal HL-7702 cells)/IC50 (BEL-7404 tumor cells) ([8]; 48 h): 10.7; Inhibitory rates (%) ([8]; 48 h): 33.9 ± 2.2%; IC50 ([8]; HL-7702, 24 h): 119 ± 1.5 µM; IC50 ([8]; HL-7702, 48 h): 84.2 ± 1.2 µM
